Reference: ChEMBL document CHEMBL4507316 (2021)

Assays:
[1] = target: Testis-specific serine/threonine-protein kinase 2 (Homo sapiens) (UniProt Q96PF2); experiment: TSK2 ProQinase selectivity panel; settings: Compound concentration 1.0 uM
[2] = target: MAP kinase-interacting serine/threonine-protein kinase 2 (Homo sapiens) (UniProt Q9HBH9); experiment: MKNK2 ProQinase selectivity panel; settings: Compound concentration 1.0 uM
[3] = target: Sodium-dependent dopamine transporter (Homo sapiens, UniProt Q01959); settings: Compound concentration 10.0 uM
[4] = target: Ephrin type-A receptor 2 (Homo sapiens) (UniProt P29317); experiment: EPHA2 ProQinase selectivity panel; settings: Compound concentration 1.0 uM
[5] = target: Mitogen-activated protein kinase 10 (Homo sapiens) (UniProt P53779); experiment: JNK3 ProQinase selectivity panel; settings: Compound concentration 1.0 uM
Mitogen-activated protein kinase 10 (Homo sapiens), sequence (P53779 whole entry): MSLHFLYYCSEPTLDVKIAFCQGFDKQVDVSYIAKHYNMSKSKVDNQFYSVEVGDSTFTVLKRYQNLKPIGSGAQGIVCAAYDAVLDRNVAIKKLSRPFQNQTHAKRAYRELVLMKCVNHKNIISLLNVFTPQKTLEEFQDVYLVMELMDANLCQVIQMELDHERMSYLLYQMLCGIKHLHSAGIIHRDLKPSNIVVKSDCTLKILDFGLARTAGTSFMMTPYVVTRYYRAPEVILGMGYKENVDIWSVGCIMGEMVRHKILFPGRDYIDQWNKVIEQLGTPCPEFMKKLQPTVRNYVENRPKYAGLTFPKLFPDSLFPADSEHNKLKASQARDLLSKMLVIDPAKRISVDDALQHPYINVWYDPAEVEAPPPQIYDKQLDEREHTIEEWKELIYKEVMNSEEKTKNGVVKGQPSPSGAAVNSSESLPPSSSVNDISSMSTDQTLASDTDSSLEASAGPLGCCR

[6] = target: Fibroblast growth factor receptor 3 (Homo sapiens) (UniProt P22607); experiment: FGF-R3 wt ProQinase selectivity panel; settings: Compound concentration 1.0 uM
[7] = target: Eukaryotic translation initiation factor 2-alpha kinase 3 (Homo sapiens) (UniProt Q9NZJ5); experiment: EIF2AK3 ProQinase selectivity panel; settings: Compound concentration 1.0 uM
[8] = test system: Hepatocyte growth factor receptor (Homo sapiens), P08581 [D1228H]; experiment: MET D1228H ProQinase selectivity panel; settings: Compound concentration 1.0 uM
Hepatocyte growth factor receptor (Homo sapiens), P08581 [D1228H], sequence (P08581 whole entry D1228H): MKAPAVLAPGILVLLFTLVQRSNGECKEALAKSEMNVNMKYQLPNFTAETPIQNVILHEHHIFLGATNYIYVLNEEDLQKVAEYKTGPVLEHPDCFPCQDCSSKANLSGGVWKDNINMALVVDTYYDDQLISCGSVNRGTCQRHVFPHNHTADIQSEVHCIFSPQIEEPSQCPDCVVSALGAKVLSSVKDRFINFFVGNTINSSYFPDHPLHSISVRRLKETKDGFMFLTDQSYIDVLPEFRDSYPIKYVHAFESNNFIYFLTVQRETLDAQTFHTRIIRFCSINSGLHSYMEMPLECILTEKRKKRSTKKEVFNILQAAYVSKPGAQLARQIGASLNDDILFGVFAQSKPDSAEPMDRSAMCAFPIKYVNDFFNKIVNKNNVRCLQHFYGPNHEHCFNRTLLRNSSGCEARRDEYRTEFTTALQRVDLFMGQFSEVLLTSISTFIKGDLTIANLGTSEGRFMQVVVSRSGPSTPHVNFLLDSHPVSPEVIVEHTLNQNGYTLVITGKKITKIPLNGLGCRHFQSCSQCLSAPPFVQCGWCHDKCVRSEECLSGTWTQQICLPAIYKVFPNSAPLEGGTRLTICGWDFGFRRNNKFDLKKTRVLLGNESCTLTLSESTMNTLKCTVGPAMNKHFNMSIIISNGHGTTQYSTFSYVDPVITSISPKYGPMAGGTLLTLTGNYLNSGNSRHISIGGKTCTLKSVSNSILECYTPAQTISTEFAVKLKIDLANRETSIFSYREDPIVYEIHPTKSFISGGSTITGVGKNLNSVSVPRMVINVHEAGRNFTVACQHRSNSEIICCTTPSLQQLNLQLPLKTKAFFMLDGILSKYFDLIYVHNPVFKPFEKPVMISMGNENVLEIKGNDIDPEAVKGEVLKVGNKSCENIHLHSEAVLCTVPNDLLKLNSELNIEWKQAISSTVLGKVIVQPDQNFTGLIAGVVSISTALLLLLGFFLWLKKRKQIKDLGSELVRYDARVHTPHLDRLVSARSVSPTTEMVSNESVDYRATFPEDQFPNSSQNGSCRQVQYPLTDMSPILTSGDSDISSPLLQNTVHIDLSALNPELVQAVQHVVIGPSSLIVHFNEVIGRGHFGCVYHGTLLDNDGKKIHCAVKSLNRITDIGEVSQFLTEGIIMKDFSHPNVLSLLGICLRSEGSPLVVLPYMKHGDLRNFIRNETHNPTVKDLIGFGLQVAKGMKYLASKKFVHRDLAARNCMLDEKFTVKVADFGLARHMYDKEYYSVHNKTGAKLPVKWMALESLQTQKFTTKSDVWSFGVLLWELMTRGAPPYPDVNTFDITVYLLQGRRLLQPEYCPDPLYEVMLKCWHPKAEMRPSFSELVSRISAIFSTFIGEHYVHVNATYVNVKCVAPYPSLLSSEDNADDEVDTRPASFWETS

[9] = target: Serine/threonine-protein kinase VRK1 (Homo sapiens) (UniProt Q99986); experiment: VRK1 ProQinase selectivity panel; settings: Compound concentration 1.0 uM
[10] = target: Serine/threonine-protein kinase mTOR (Homo sapiens) (UniProt P42345); experiment: mTOR ProQinase selectivity panel; settings: Compound concentration 1.0 uM
[11] = target: D(1A) dopamine receptor (Homo sapiens) (UniProt P21728); settings: Compound concentration 10.0 uM
[12] = target: Focal adhesion kinase 1 (Homo sapiens) (UniProt Q05397); experiment: FAK ProQinase selectivity panel; settings: Compound concentration 1.0 uM
[13] = target: Serine/threonine-protein kinase MRCK beta (Homo sapiens) (UniProt Q9Y5S2); experiment: CDC42BPB ProQinase selectivity panel; settings: Compound concentration 1.0 uM
[14] = test system: Epidermal growth factor receptor (Homo sapiens), P00533 [UNDEFINED MUTATION]; experiment: EGF-R d752-759 ProQinase selectivity panel; settings: Compound concentration 1.0 uM
Epidermal growth factor receptor (Homo sapiens), P00533 [UNDEFINED MUTATION], sequence (P00533 whole entry, looked up, change not shown): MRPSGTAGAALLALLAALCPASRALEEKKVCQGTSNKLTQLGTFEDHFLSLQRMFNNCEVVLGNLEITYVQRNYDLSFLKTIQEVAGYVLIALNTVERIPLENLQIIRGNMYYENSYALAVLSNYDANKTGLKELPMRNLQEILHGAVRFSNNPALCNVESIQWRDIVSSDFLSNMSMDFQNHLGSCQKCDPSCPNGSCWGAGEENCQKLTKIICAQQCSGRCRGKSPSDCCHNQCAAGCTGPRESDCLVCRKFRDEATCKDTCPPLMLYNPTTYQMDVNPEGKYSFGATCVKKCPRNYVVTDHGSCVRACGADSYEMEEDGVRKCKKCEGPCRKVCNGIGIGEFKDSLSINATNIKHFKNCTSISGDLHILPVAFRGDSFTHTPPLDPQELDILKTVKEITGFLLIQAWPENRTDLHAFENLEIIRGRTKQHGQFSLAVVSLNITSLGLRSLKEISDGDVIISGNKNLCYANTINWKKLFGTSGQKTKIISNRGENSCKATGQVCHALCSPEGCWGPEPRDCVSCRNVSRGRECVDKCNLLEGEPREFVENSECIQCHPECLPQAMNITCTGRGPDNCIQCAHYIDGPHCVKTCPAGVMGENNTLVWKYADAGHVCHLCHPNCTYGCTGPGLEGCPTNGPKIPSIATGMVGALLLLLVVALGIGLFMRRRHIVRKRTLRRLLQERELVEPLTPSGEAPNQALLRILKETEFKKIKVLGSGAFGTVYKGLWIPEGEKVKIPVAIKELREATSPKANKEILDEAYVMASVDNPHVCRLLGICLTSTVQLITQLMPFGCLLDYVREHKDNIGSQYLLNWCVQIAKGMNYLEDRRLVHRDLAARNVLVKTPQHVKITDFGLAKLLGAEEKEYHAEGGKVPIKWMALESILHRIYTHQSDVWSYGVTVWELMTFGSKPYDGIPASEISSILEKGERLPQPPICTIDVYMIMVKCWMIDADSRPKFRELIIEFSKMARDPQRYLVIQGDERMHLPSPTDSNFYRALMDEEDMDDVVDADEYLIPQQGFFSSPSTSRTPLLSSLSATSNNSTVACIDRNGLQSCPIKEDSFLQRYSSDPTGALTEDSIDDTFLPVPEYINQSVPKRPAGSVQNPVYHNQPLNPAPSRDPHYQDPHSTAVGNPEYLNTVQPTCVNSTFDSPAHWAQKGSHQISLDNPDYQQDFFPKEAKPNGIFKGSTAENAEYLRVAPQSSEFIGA

[15] = target: Serine/threonine-protein kinase 3 (Homo sapiens) (UniProt Q13188); experiment: MST2 ProQinase selectivity panel; settings: Compound concentration 1.0 uM
[16] = target: Fibroblast growth factor receptor 2 (Homo sapiens) (UniProt P21802); experiment: FGF-R2 ProQinase selectivity panel; settings: Compound concentration 1.0 uM
[17] = target: Serine/threonine-protein kinase TAO3 (Homo sapiens) (UniProt Q9H2K8); experiment: TAOK3 ProQinase selectivity panel; settings: Compound concentration 1.0 uM
[18] = target: TGF-beta receptor type-2 (Homo sapiens) (UniProt P37173); experiment: TGFB-R2 ProQinase selectivity panel; settings: Compound concentration 1.0 uM
TGF-beta receptor type-2 (Homo sapiens), sequence (P37173 whole entry): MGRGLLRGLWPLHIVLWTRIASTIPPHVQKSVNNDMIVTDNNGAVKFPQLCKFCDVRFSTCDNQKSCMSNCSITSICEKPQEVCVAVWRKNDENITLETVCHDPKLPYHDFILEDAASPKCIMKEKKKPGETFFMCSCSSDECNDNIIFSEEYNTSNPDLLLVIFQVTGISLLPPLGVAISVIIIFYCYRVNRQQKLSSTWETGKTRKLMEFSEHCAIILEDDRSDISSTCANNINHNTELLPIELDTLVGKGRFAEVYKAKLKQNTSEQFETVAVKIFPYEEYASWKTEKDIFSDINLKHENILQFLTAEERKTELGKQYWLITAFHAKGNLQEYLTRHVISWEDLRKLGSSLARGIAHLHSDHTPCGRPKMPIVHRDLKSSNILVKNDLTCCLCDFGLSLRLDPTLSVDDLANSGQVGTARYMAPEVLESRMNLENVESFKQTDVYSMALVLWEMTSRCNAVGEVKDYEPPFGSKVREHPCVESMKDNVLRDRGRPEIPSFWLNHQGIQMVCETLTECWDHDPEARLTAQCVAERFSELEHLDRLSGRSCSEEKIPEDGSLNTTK

[19] = test system: RAF proto-oncogene serine/threonine-protein kinase (Homo sapiens), P04049 [Y340D,Y341D]; experiment: RAF1 Y340D/Y341D ProQinase selectivity panel; settings: Compound concentration 1.0 uM
[20] = target: STE20-like serine/threonine-protein kinase (Homo sapiens) (UniProt Q9H2G2); experiment: SLK ProQinase selectivity panel; settings: Compound concentration 1.0 uM
[21] = target: Misshapen-like kinase 1 (Homo sapiens) (UniProt Q8N4C8); experiment: MINK1 ProQinase selectivity panel; settings: Compound concentration 1.0 uM
[22] = target: Calcium/calmodulin-dependent protein kinase type II subunit delta (Homo sapiens) (UniProt Q13557); experiment: CAMK2D ProQinase selectivity panel; settings: Compound concentration 1.0 uM
Calcium/calmodulin-dependent protein kinase type II subunit delta (Homo sapiens), sequence (Q13557 whole entry): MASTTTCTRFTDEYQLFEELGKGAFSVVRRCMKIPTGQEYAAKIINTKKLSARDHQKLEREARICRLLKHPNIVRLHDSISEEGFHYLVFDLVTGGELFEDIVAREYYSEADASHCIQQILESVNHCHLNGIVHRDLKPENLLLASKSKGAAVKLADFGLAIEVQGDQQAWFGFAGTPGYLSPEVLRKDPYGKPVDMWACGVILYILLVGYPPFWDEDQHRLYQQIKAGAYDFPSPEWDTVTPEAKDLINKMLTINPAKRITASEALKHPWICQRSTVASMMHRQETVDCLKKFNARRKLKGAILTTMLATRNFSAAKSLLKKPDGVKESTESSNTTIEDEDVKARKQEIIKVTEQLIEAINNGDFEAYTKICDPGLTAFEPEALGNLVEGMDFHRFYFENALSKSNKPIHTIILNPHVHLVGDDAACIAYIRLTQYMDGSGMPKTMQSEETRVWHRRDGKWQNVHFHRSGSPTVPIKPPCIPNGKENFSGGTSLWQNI

[23] = target: Aurora kinase B (Homo sapiens) (UniProt Q96GD4); experiment: Aurora-B ProQinase selectivity panel; settings: Compound concentration 1.0 uM
[24] = target: Interleukin-1 receptor-associated kinase 4 (Homo sapiens) (UniProt Q9NWZ3); experiment: IRAK4 ProQinase selectivity panel; settings: Compound concentration 1.0 uM
[25] = target: Serine/threonine-protein kinase PLK2 (Homo sapiens) (UniProt Q9NYY3); experiment: SNK ProQinase selectivity panel; settings: Compound concentration 1.0 uM
[26] = target: Ephrin type-B receptor 3 (Homo sapiens) (UniProt P54753); experiment: EPHB3 ProQinase selectivity panel; settings: Compound concentration 1.0 uM
[27] = target: Serine/threonine-protein kinase TBK1 (Homo sapiens) (UniProt Q9UHD2); experiment: TBK1 ProQinase selectivity panel; settings: Compound concentration 1.0 uM
[28] = target: Serine/threonine-protein kinase 24 (Homo sapiens) (UniProt Q9Y6E0); experiment: MST3 ProQinase selectivity panel; settings: Compound concentration 1.0 uM
[29] = target: Cyclin-dependent kinase 5/CDK5 activator 1 (Homo sapiens) (UniProt Q00535+Q15078); experiment: CDK5/p25NCK ProQinase selectivity panel; type: protein-complex assay; settings: Compound concentration 1.0 uM
Cyclin-dependent kinase 5/CDK5 activator 1 (Homo sapiens), sequence (Q00535 whole entry): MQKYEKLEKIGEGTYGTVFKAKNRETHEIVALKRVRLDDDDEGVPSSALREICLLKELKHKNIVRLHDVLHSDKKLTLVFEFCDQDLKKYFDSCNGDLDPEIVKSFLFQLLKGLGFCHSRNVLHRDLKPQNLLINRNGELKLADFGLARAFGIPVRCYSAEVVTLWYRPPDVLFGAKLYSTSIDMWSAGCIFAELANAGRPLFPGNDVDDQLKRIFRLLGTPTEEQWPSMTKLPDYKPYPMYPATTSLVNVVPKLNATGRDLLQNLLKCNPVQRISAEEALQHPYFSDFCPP
Cyclin-dependent kinase 5/CDK5 activator 1 (Homo sapiens), sequence (Q15078 99-307 partner limits assumed): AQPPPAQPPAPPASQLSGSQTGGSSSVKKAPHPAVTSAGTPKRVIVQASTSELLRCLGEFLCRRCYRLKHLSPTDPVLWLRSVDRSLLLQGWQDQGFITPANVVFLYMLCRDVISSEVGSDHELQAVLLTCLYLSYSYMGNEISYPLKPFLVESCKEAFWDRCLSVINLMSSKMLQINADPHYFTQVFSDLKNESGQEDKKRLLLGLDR

[30] = target: MAP kinase-interacting serine/threonine-protein kinase 1 (Homo sapiens) (UniProt Q9BUB5); experiment: MKNK1 ProQinase selectivity panel; settings: Compound concentration 1.0 uM
[31] = test system: Fibroblast growth factor receptor 1 (Homo sapiens), P11362 [V561M]; experiment: FGF-R1 V561M ProQinase selectivity panel; settings: Compound concentration 1.0 uM
[32] = target: 5-hydroxytryptamine receptor 3A (Homo sapiens) (UniProt P46098); settings: Compound concentration 10.0 uM
[33] = target: Dual specificity tyrosine-phosphorylation-regulated kinase 4 (Homo sapiens) (UniProt Q9NR20); experiment: DYRK4 ProQinase selectivity panel; settings: Compound concentration 1.0 uM
[34] = target: Serine/threonine-protein kinase PAK 6 (Homo sapiens) (UniProt Q9NQU5); experiment: PAK6 ProQinase selectivity panel; settings: Compound concentration 1.0 uM
[35] = target: Dual specificity mitogen-activated protein kinase kinase 1 (Homo sapiens) (UniProt Q02750); experiment: MEK1 ProQinase selectivity panel; settings: Compound concentration 1.0 uM
[36] = target: Tyrosine-protein kinase JAK3 (Homo sapiens) (UniProt P52333); experiment: JAK3 ProQinase selectivity panel; settings: Compound concentration 1.0 uM
[37] = target: Serine/threonine-protein kinase pim-3 (Homo sapiens) (UniProt Q86V86); experiment: PIM3 ProQinase selectivity panel; settings: Compound concentration 1.0 uM
[38] = target: Mitogen-activated protein kinase 1 (Homo sapiens) (UniProt P28482); experiment: ERK2 ProQinase selectivity panel; settings: Compound concentration 1.0 uM
[39] = target: NUAK family SNF1-like kinase 1 (Homo sapiens) (UniProt O60285); experiment: ARK5 ProQinase selectivity panel; settings: Compound concentration 1.0 uM
[40] = test system: Hepatocyte growth factor receptor (Homo sapiens), P08581 [D1228N]; experiment: MET D1228N ProQinase selectivity panel; settings: Compound concentration 1.0 uM
[41] = target: Serine/threonine-protein kinase 16 (Homo sapiens) (UniProt O75716); experiment: TSF1 ProQinase selectivity panel; settings: Compound concentration 1.0 uM
[42] = target: 5'-AMP-activated protein kinase catalytic subunit alpha-1 (Homo sapiens) (UniProt Q13131); experiment: AMPK-alpha1 ProQinase selectivity panel; settings: Compound concentration 1.0 uM
[43] = target: 5-hydroxytryptamine receptor 7 (Homo sapiens) (UniProt P34969); settings: Compound concentration 10.0 uM
[44] = target: Sigma intracellular receptor 2 (Homo sapiens, UniProt Q5BJF2); experiment: GPCRScan assay: inhibition of Sigma 2; parameters: radioligand conc. used [nm] 5.0, parental cells HEKT
Sigma intracellular receptor 2, sequence (Q5BJF2 whole entry): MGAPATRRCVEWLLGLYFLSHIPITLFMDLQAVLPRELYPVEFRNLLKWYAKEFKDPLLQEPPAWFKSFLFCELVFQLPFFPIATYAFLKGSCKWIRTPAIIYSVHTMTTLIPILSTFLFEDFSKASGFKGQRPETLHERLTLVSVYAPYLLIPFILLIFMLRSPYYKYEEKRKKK

[45] = target: Hepatocyte growth factor receptor (Homo sapiens) (UniProt P08581); experiment: MET wt ProQinase selectivity panel; settings: Compound concentration 1.0 uM
[46] = target: GABA-A receptor; anion channel (Rattus norvegicus) (UniProt O09028+P15431+P18506+P18508+P19969+P20236+P23574+P23576+P28471+P28473+P30191+P62813+P63079+P63138+Q91ZM7+Q9ES14); settings: Compound concentration 10.0 uM
[47] = target: Serine/threonine-protein kinase PLK4 (Homo sapiens) (UniProt O00444); experiment: SAK ProQinase selectivity panel; settings: Compound concentration 1.0 uM

For `O=C1c2ccc(Nc3ccc(F)cc3F)cc2CCc2ccc(OC[C@H](O)CO)cc21` [Skepinone-L], the % Residual activity with Skepinone-L [1] was 82%, the % Residual activity with Skepinone-L [2] was 96% and the inhibition [3] was 81.4%. The % Residual activity with Skepinone-L [4] was 119%, the % Residual activity with Skepinone-L [5] was 33% and the % Residual activity with Skepinone-L [6] was 102%. For the same molecule, the % Residual activity with Skepinone-L [7] was 95%, the % Residual activity with Skepinone-L [8] was 97% and the % Residual activity with Skepinone-L [9] was 88%. For the same molecule, the % Residual activity with Skepinone-L [10] was 97%, the inhibition [11] was 5.83% and the % Residual activity with Skepinone-L [12] was 113%. For the same molecule, the % Residual activity with Skepinone-L [13] was 83%, the % Residual activity with Skepinone-L [14] was 83% and the % Residual activity with Skepinone-L [15] was 83%. It also gave a % Residual activity with Skepinone-L [16] of 125%, a % Residual activity with Skepinone-L [17] of 102% and a % Residual activity with Skepinone-L [18] of 77%. The % Residual activity with Skepinone-L [19] was 91%, the % Residual activity with Skepinone-L [20] was 39% and the % Residual activity with Skepinone-L [21] was 94%. The % Residual activity with Skepinone-L [22] was 43%, the % Residual activity with Skepinone-L [23] was 96% and the % Residual activity with Skepinone-L [24] was 104%. For the same molecule, the % Residual activity with Skepinone-L [25] was 103%, the % Residual activity with Skepinone-L [26] was 108% and the % Residual activity with Skepinone-L [27] was 87%. For the same molecule, the % Residual activity with Skepinone-L [28] was 106%, the % Residual activity with Skepinone-L [29] was 99% and the % Residual activity with Skepinone-L [30] was 69%. It also gave a % Residual activity with Skepinone-L [31] of 89%, an inhibition [32] of 6.53% and a % Residual activity with Skepinone-L [33] of 93%. For the same molecule, the % Residual activity with Skepinone-L [34] was 101%, the % Residual activity with Skepinone-L [35] was 79% and the % Residual activity with Skepinone-L [36] was 103%. It also gave a % Residual activity with Skepinone-L [37] of 78%, a % Residual activity with Skepinone-L [38] of 83% and a % Residual activity with Skepinone-L [39] of 115%. The % Residual activity with Skepinone-L [40] was 95%, the % Residual activity with Skepinone-L [41] was 94% and the % Residual activity with Skepinone-L [42] was 84%. The inhibition [43] was -9.25%, the Ki ([44]; read-out: Ki) was 3.36 µM and the Ki ([44]; read-out: pKi (converted)) was 3.24 µM. It also gave a % Residual activity with Skepinone-L [45] of 108%, an inhibition [46] of 12.8% and a % Residual activity with Skepinone-L [47] of 62%.
